Data set [1] deals with MCF-7 cells. Description: Cell cycle analysis (propidium iodide, FACS). In kind it is cell-based, human. The conditions noted are these: MCF-7, DOX 5 μM, 12 h. The procedure:
(§1) The in vitro cytotoxicity of DOX@NKsome and the equivalent Free DOX were investigated against MCF-7 cells and NHost using a cell cycle analysis and an MTT assay. For cell cycle analysis, 1×10^6 cells were treated with 5 μM of Free DOX, equivalent DOX@NKsomes and bare NKsomes (equivalent to DOX-loaded) for 12 h. After incubation, cells were harvested, fixed in 70% ethanol overnight, washed with PBS twice and then followed propidium iodide staining. Further, the samples were analyzed in FACS Calibur for cell cycle analysis.

In the next data set the test system is NHost. Description: Cell cycle analysis (propidium iodide, FACS). The conditions noted are these: DOX 5 μM, 12 h. In kind it is cell-based, human. As to the method:
as §1

The test system of data set [2] is THP-1 cells. Description: In vitro immunogenicity cytokine release assay (ELISA). In kind it is cell-based, human. To be noted: THP-1, 24 h incubation. As to the method:
The immunogenicity of NKsomes in THP-1 cells were tested for its inflammatory response using a cytokine release assay. In brief, 7.5×10^5 THP-1 cells were seeded in 12-well plate and treated with isolated NKM (100 μg/mL), NKsomes (100 μg/mL), Free DOX (5 μg/mL), DOX@NKsomes (equivalent DOX load) and Bare liposomes (100 μg/mL) for 24 h incubation. Positive (LPS, 3 μg/mL) and negative controls were maintained for assessing pro-inflammatory cytokines in THP-1 cells. The treated cell culture supernatants were collected, centrifuged to remove cell debris, aliquot and stored at −20° C. until needed. Samples were thawed and used for analyzing pro-inflammatory cytokines, IL-1β (0.8 pg/ml), IL-6 (0.4 pg/mL) and TNF-α (0.7 pg/mL) using quantitative enzyme-linked immunosorbent assay KIT (ELISA) (R&D Systems, Inc. Minneapolis, MN) as recommended by the manufacturer. Sample […] was measured at 450 nm with the wavelength correction at 540 nm using Synergy H1 hybrid microplate reader (BioTek Instruments Inc. VT).

The subject of another data set is NHost cells. Kind of data set: MTT assay. The format is cell-based, human. The conditions noted are these: DOX 0.5-15 μM, 24 h. The procedure:
(§2) For MTT analysis, MCF-7 cells and NHost cells were treated with NKsomes with different DOX concentration along with free DOX and bare NKsomes. In brief, 2×10^4 cells per well in the respective medium were seeded in a 96-well plate and incubated for 24 h. While the cell reaches 80% confluence, the media was replaced with different DOX concentration of free DOX and NKsomes (0.5, 1.5, 3, 5, 10 and 15 uM) and incubated for additional 24 h. Control cells were maintained without DOX treatment. After incubation, MTT dye was added according to the manual instruction and further incubated for 3 h. The insoluble formation crystals were solubilized using DMSO, and the absorbance was read at 590 and 630 nm using microplate reader (BioTek, Synergy H1 Hybrid reader).
(Formazan colour is commonly taken as a measure of viable cells.)

The subject of data set [3] is MCF-7 cells. Description: MTT assay. To be noted: MCF-7, DOX 0.5-15 μM, 24 h. In kind it is cell-based, human. The procedure:
as §2

Data set [4] relates to MCF-7 induced solid tumor model. Kind of data set: In vivo anti-tumor therapy. Set-up: species or system NU/NU nude mice. As to the method:
The anti-tumor efficacy of DOX@NKsomes was determined along with free DOX and unloaded NKsomes (aka “empty” NKsomes) using MCF-7 induced solid tumor model in immunodeficient NU/NU nude mice (n=3). In brief, 1×10^6 MCF-7 cells in PBS was injected subcutaneously into the hind rear flank region of the mice and the tumor growth is monitored periodically. When the tumor size reached 4-5 mm, animals received 4 cycles of drug treatment at Day 1, 4, 7 and 10 [DOX@NKsomes and free DOX (equivalent DOX concentration of 5 mg/kg)] up to 3 weeks. Control groups were also maintained without any treatment and bare NKsomes (10 mg/kg). During the study, body weight and tumor volume of the animal groups were monitored periodically to assess the therapeutic effects. The tumor volume (V) was determined using V=L×W2/2, where L=length of the tumor and W=width of the tumor. At the end of the study, animals were euthanized, collected tumors and measured its size and weight. Further, the tumor tissues were embedded in OCT, cryosectioned and subjected to immunofluorescence for the qualitative accumulation of NKsomes in tumor tissues by assessing the NKM protein marker (CD 56).

The subject of data set [5] is THP-1 cells. Description: In vitro cytokine release assay of BNc. In kind it is cell-based, human. The conditions noted are these: THP-1, 100 μg/mL (LPS 3 μg/mL), 24 h. As to the method:
The immunogenicity of the prepared BNc along with the bare PLGA NP were tested for its immunoregulatory potential using standard cytokine release assay. In brief, 8×10^5 THP-1 cells were seeded in a 12-well plate and treated with bare PLGA NP (100 μg/mL), NKM (100 μg/mL), Gd-lipid (100 μg/mL) and BNc (100 μg/mL) at 37° C. for 24 h. After 24 h incubation, cell culture supernatants were collected, centrifuged, removed cell debris and stored at −20° C. as small aliquots. For cytokine assay, samples were thawed and analyzed for pro-inflammatory cytokines, IL-1β (LOD: 1.7 pg/ml), IL-6 (LOD: 1.5 pg/mL), and TNF-α (LOD: 1 pg/mL) using Magnetic Human Cytokine Multiplex Assays Kit (R&D Systems, Inc. Minneapolis, MN) in Luminex MagPix® instrument (Millipore Inc.) as per the manufacturer recommendations. For positive control, cells were dosed with 3 μg/mL of lipopolysaccharide (LPS) for 24 h.

Data on 2 compounds can be found in patent publication US12514935B2, “Nanocarrier systems for imaging and delivery of active agents” (Kansas State University Research Foundation, priority 2018, dated 2026).

With `COc1cccc2c1C(=O)c1c(O)c3c(c(O)c1C2=O)C[C@@](O)(C(=O)CO)C[C@@H]3O[C@H]1C[C@H](N)[C@H](O)[C@H](C)O1` [Free DOX, doxorubicin], the values for the G1 fraction in the data set on MCF-7 cells [1] and with NHost were 53% and 53.3%, respectively. Besides, the G2 fraction was 25% in the data set on MCF-7 cells [1] and 23.6% with NHost. In addition, the “immunogenicity (pro-inflammatory cytokines)” value with THP-1 cells [2] was “little elevation of IL-10 and TNF-α levels”. Moreover, the “in vitro cytotoxicity (MTT)” value in the data set on NHost cells is reported as “superior toxicity”; with MCF-7 cells [3] it was “Dose-dependent cytotoxicity”. The “tumor inhibition rate (IR %)” value in data set [4] (DOX 5 mg/kg or bare NKsomes 10 mg/kg, Day 1, 4, 7, 10, from tumor weight) was 63.69%. In data set [4] (end of study), this compound came in with an average tumor weight of 0.3 ± 0.04 g. The tumor volume change entry in data set [4] (end of treatment period) was “significant reduction in tumor volume”.
In the case of lipopolysaccharide [LPS], in the data set with THP-1 cells [5], the “immunogenicity (IL-1β, IL-6, TNF-α release)” value is “elevated levels of IL-1β, IL-6, and TNF-α”.
